The text below walks through data of PubChem BioAssay AID1963844 (Molecular Pharmacology Branch, DTP, NCI, 2024).

Where “and” joins values, the source holds several entries; their conditions need not be identical. Equal entries are not always repeated.

A word on the viability, T/C: it is the result in the treated group divided by that in the control group, in per cent. Broadly, the IC50 is the concentration that inhibits the measured activity by half.

The test concerns 422866-222-R5-J1-PDC complex spheroid viability. The test is described as follows: Anticancer human tumor 422866-222-R5-J1-PDC patient-derived pancreatic adenocarcinoma cell line growth inhibition [POLQ]. The settings on record: for viability, T/C: stronger effect = lower value. Here is the method: Multicellular complex tumor spheroid response to Polymerase (POL) inhibitors (novobiocin, ART-558, RP6685) in combination with a variety of drugs and investigational agents in selected tumor cell lines
The POL inhibitors (novobiocin, ART-558, and RP6685) were evaluated both individually and in combination with standard of care and investigational anticancer small molecules within a complex spheroid model of solid tumors. . Complex spheroids include a stromal component modeled by human endothelial cells (HUVEC) and fibroblasts modeled by human mesenchymal stem cells (MSCs). The concentration ranges selected for each drug and investigational agent were based upon clinically achievable concentrations if the clinical Cmax of the agent was known.
Compounds. The drugs and investigational agents: novobiocin (NSC847541), ART-558 (NSC835418), RP-6685 (NSC848927), peposertib (NSC802822), ceralasertib (NSC780249), elimusertib (NSC800525), camonsertib (NSC841442), AZD-1390 (NSC803789), olaparib (NSC753686), talazoparib (NSC767125), rucaparib (NSC756644), sotorasib (NSC818433), MRTX-1133 (NSC836407), SN-38 (NSC673596), topotecan (NSC609699), epotoside (NSC141540), doxorubicin (NSC123127), gemcitabine (NSC613327), 5-fluorouracil (NSC19893), paclitaxel (NSC125973), vemurafenib (NSC761431), MSA-2 (NSC828583), SN-011 (NSC837082), adavosertib (NSC754352), prexasertib (NSC758257), carboplatin (NSC241240) and oxaliplatin (NSC266046), were obtained from the National Cancer Institute (NCI) Developmental Therapeutics Program Chemical Repository (21). The FDA-approved anticancer drug set is available from the Developmental Therapeutics Program at https://dtp.cancer.gov/organization/dscb/obtaining/. […] The stock solutions were prepared in dimethyl sulfoxide (DMSO, Sigma-Aldrich, St. Louis, MO, cat. D2650), except for the platinum compounds which were prepared in saline (Quality Biological, Gaithersburg, MD, cat. 114-055-101), at 800-fold the tested concentration and stored at -70 degrees C prior to their use. All drugs and investigational agents were tested over a range starting from a high concentration at or near the clinical Cmax and decreasing in half-log increments. If the clinical Cmax for an agent had not been determined, the highest concentration tested was 10 microM, except for SN-38, which was tested at a high concentration of 1 microM.
Cell Culture. All cells were maintained in an incubator at 37 degrees C and 5% CO2 with 95% humidity. The PDC lines were cultured according to standard operating procedures established by the NCI PDMR (https://pdmr.cancer.gov). Table 3 of the manuscript, lists the cell lines along with the number of the three cell types plated to form the mct-spheroids and media for tumor cell growth. After thawing, all PDC lines, except 997537-175-T-J1-PDC and 415267-285-R-J2-PDC, were cultured in Matrigel-coated flasks prepared with a working solution of 1X Ham's F-12 nutrient mix, without supplementation (Thermo Fisher Scientific, cat. 11765054), 100 U/mL penicillin-streptomycin (Thermo Fisher Scientific, cat. 15140122), and 2.5% Matrigel (Corning Inc., Corning, NY, cat. 354248) for the first three passages. The two PDC lines 997537-175-T-J1-PDC and 415267-285-R-J2-PDC were cultured on uncoated flasks. The 857933-349-R-J2-PDC line was cultured in 6C/Colon 1B media containing advanced DMEM/F-12 (Thermo Fisher Scientific, cat. 12634028), 10 mM HEPES (Thermo Fisher Scientific, cat. 15630080), 1X GlutaMAX supplement (Thermo Fisher Scientific, cat. 35050061), 0.1 mg/mL primocin (InvivoGen, San Diego, CA, cat. ant-pm-2), 10% defined fetal bovine serum, heat inactivated (HyClone Laboratories Inc., Logan, UT, cat. SH30070.03HI), 50% L-WRN conditioned media (ATCC, cat. CRL-3276), 1.25 mM N-Acetyl-L-cysteine (Sigma-Aldrich, cat. A9165), 10 mM nicotinamide (Sigma-Aldrich, cat. N0636), 1X B-27 supplement (Thermo Fisher Scientific, cat. 17504044), 1X N-2 supplement (Thermo Fisher Scientific, cat. […]
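Note: spheroids exposed to compounds for one week before readout.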
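Throughout, for viability, T/C: percent of DMSO vehicle wells luminescence so 100% = untreated viability.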

In the case of `Nc1ccc(C#CCN(C(=O)Cc2ncc(C(F)(F)F)cc2C(F)(F)F)c2ccc(F)cc2)nn1`, the viability, T/C runs as follows: (compound 0.0316 µM) 93.7% [middle of 13 runs]; (compound 0.1 µM) 97.3% [middle of 13 runs]; (compound 1 µM) 97.2% [middle of 13 runs]; (compound 3.16 µM) 105% [middle of 13 runs]; (compound 10 µM) 114% [middle of 13 runs]. In addition, the IC50 (compound alone, run of 12/05/2023) is greater than 10 µM.
On to `CC[C@@]1(O)C(=O)OCc2c1cc1n(c2=O)Cc2cc3c(CN(C)C)c(O)ccc3nc2-1`, for which the viability, T/C is 104% and 91% and 103% (compound 0.000316 µM); 106% and 95.4% and 94.5% (compound 0.001 µM); 88% and 77% and 98.9% (compound 0.00316 µM); 70.4% and 68.2% and 68.5% (compound 0.01 µM); 48.4% and 37.3% and 41.3% (compound 0.0316 µM); 36% and 32.2% and 33.8% (compound 0.1 µM). Also, the IC50 (curve of compound) was 0.0288 µM and 0.02 µM and 0.0211 µM.
Consider `CC1COCCN1c1cc(-c2ccnn2C)c2ccnc(-c3ccn[nH]3)c2n1` (configuration not stated), for which the viability, T/C is 76.8% and 96.8% and 97.8% (compound 0.0316 µM); 61.1% and 55.4% and 46.2% (compound 0.1 µM); 38.6% and 42.8% and 35.1% (compound 0.316 µM); 44.4% and 36.6% and 37.6% (compound 1 µM); 80.4% and 81.7% and 64% (compound 3.16 µM); 69.2% and 80.5% and 68.2% (compound 10 µM). Also, the IC50 (curve of compound) was > 10 µM and 10 µM.
Regarding `CCc1cc2c(N3CCc4c(cc(Cn5ccnc5)cc4-c4cn(C)nc4C(F)(F)F)C3=O)ccnc2c(OC)n1` + Nc1ccc(C#CCN(C(=O)Cc2ncc(C(F)(F)F)cc2C(F)(F)F)c2ccc(F)cc2)nn1, the IC50 by setting is: (curve of first compound, second compound 0.0316 µM) greater than 10 µM; (curve of first compound, second compound 0.1 µM) greater than 10 µM; (curve of first compound, second compound 0.316 µM) greater than 10 µM; (curve of first compound, second compound 1 µM) greater than 10 µM; (curve of first compound, second compound 3.16 µM) greater than 10 µM; (curve of first compound, second compound 10 µM) greater than 10 µM. Besides, the viability, T/C stood at 82.5% (second compound 0.0316 µM, first compound 0.0316 µM); 102% (second compound 0.0316 µM, first compound 0.1 µM); 103% (second compound 0.0316 µM, first compound 0.316 µM); 119% (second compound 0.0316 µM, first compound 1 µM); 89.2% (second compound 0.0316 µM, first compound 3.16 µM); 126% (second compound 0.0316 µM, first compound 10 µM). The viability, T/C was found to be 79.7% (second compound 0.1 µM, first compound 0.0316 µM); 103% (second compound 0.1 µM, first compound 0.1 µM); 112% (second compound 0.1 µM, first compound 0.316 µM); 109% (second compound 0.1 µM, first compound 1 µM); 95.6% (second compound 0.1 µM, first compound 3.16 µM); 120% (second compound 0.1 µM, first compound 10 µM). In addition, the viability, T/C was 85.7% (second compound 0.316 µM, first compound 0.0316 µM); 85.2% (second compound 0.316 µM, first compound 0.1 µM); 79.5% (second compound 0.316 µM, first compound 0.316 µM); 128% (second compound 0.316 µM, first compound 1 µM); 98.9% (second compound 0.316 µM, first compound 3.16 µM); 98.3% (second compound 0.316 µM, first compound 10 µM). The viability, T/C runs as follows: (second compound 1 µM, first compound 0.0316 µM) 82.8%; (second compound 1 µM, first compound 0.1 µM) 77.3%; (second compound 1 µM, first compound 0.316 µM) 107%; (second compound 1 µM, first compound 1 µM) 101%; (second compound 1 µM, first compound 3.16 µM) 113%; (second compound 1 µM, first compound 10 µM) 107%. In addition, the viability, T/C reads like this: (second compound 3.16 µM, first compound 0.0316 µM) 102%; (second compound 3.16 µM, first compound 0.1 µM) 90.7%; (second compound 3.16 µM, first compound 0.316 µM) 92%; (second compound 3.16 µM, first compound 1 µM) 92.7%; (second compound 3.16 µM, first compound 3.16 µM) 114%; (second compound 3.16 µM, first compound 10 µM) 115%. Further, the viability, T/C by setting is: (second compound 10 µM, first compound 0.0316 µM) 92.8%; (second compound 10 µM, first compound 0.1 µM) 115%; (second compound 10 µM, first compound 0.316 µM) 93.7%; (second compound 10 µM, first compound 1 µM) 102%; (second compound 10 µM, first compound 3.16 µM) 110%; (second compound 10 µM, first compound 10 µM) 106%.
